From patent US20240408100A1, “TREATMENT METHODS FOR SUBJECTS HAVING CANCER WITH A DYSREGULATED MAPK AND/OR PI3K PATHWAY” (TAIHO PHARMACEUTICAL CO., LTD., priority 2021, published 2024)
Where two headings read alike, the source gives them in different places.

Legend:
[1] = test system: SW1573 human lung tumor xenografts; conditions: for T/C ratio (%): Day 15; for Number of deaths / Tumor volume (mm^3) Day 15 Mean ± SE: qd Day 1-14, po
[2] = test system: MDA-MB-231; test: growth inhibition assay, NF1 mutant cell line; format: cell-based; conditions: Homo sapiens; MDA-MB-231, TN breast, NF1 p.T467Hfs*3
Description: (§1) In order to investigate the growth inhibitory effect of Compound (1) in NF1 mutant cancer cell lines, the IC50 values of growth inhibition assay were obtained and compared then in Table 2.
(§2) In this experiment, to compare the growth inhibitory effect of Compound (1) with those of MAPK and PI3K signaling inhibitors, the IC50 values of trametinib (as a MEK inhibitor), and Alpelisib (as a PI3K inhibitor) were obtained and compared.

[3] = test system: MDA-MB-175VII; test: growth inhibition assay, NF1 mutant cell line; format: cell-based; conditions: Homo sapiens, ER+ breast, NF1 p.1679Dfs*21
Description: as §1, §2

[4] = test system: MeWo; test: growth inhibition assay, NF1 mutant cell line; format: cell-based; conditions: Homo sapiens, melanoma, NF1 p.Q1336*
Description: as §1, §2

[5] = test system: RKO; test: growth inhibition assay, NF1 mutant cell line; format: cell-based; conditions: Homo sapiens, colon
Description: as §1, §2

[6] = test system: BT483; test: growth inhibition assay, NF1 mutant cell line; format: cell-based; conditions: Homo sapiens, BT-483; BT483, ER+ breast, NF1 p.R1204W
Description: as §1, §2

[7] = test system: HCT116; test: growth inhibition assay, NF1 mutant cell line; format: cell-based; conditions: Homo sapiens, HCT-116; HCT116, colon, NF1 p.P678Rfs*10, p.P388T
Description: as §1, §2

[8] = test system: HCC202; test: growth inhibition assay, NF1 mutant cell line; format: cell-based; conditions: HCC202, HER2+ breast, NF1 p.X465_splice
Description: as §1, §2

[9] = test system: H1838; test: growth inhibition assay, NF1 mutant cell line; format: cell-based; conditions: Homo sapiens, NCI-H1838; H1838, lung, NF1 p.N184Qfs*17
Description: as §1, §2

[10] = test system: MCF7 cells (control and NF1 knockdown); test: immunoblotting of target inhibition and apoptosis induction; format: cell-based, human
Method: To investigate the mechanism of action of Compound (1) in inhibiting the growth of NF1 knockdown breast cancer cells, Compound (1), trametinib, Alpelisib, and fulvestrant were exposed to NF1-knockdown MCF7 and T47D cells at indicated final concentration for 24 hours. NF1, pPRAS40 Thr246, pYB1 Ser102, pS6RP Ser235/236, ERα, and cleaved PARP were detected by immunoblotting.

[11] = test system: LU65 human lung tumor xenografts; test: antitumor effect in mice with LU65 xenograft tumors
Method: The tumor volumes and body weights of animals were recorded.

[12] = test system: AsPC-1 human pancreatic tumor xenografts; conditions: for T/C ratio (%): Day 22; for Tumor volume (mm^3) Day 22 Mean ± SE: qd Day 1-21, po
Method: All treatments were administered every day by oral gavage. The tumor volumes and body weights of animals were recorded.

[13] = test system: MCF7; test: growth inhibition, 3 days; format: cell-based; conditions: Homo sapiens, MCF7, NF1 WT
Method: (§3) MCF7 cells cultured in phenol red-free RPMI1640 medium containing 10% charcoal stripped FBS were transfected with NF1 siRNA to a final concentration of […] using Lipofectamine RNAiMAX. The cells were then incubated for 1 day at 37° C., 5% CO2. After that, E2 (estrogen) was added to the medium at 1 nmol/L final concentration, and the cells were cultured for 3 days, after which the cells were collected and cell extracts were prepared.
(§4) To investigate the growth inhibition effect of Compound (1) on the NF1-depleted ER+/HER2− breast cancer cells, MCF7 and T47D, the serially diluted Compound (1) was exposed to the cells for 3 days as in the previous experiment.
(§5) The growth inhibition curve in MCF7 and T47D cells were obtained and the half maximal inhibitory concentration (IC50) value of growth inhibition were calculated as shown in Table 1.

[14] = test system: T47D_NF1KD; test: growth inhibition, 3 days; format: cell-based
Method: as §3, §4, §5

[15] = test system: T47D; test: growth inhibition, 3 days; format: cell-based; conditions: Homo sapiens, NF1 WT
Method: as §3, §4, §5

[16] = test system: MCF7_NF1KD; test: growth inhibition, 3 days; format: cell-based; conditions: Homo sapiens
Method: as §3, §4, §5

[17] = test system: PTEN-mutated HEC-6 cells; test: dose-dependent apoptosis induction; format: cell-based, human; conditions: HEC-6, 48 hour, compared to control
[18] = test system: LS180; test: 3-day growth inhibition assay; format: cell-based; conditions: Homo sapiens; LS180 (Colon), KRAS p.G12D, PIK3CA p.H1047R, PTEN p.I67K; read-out: Growth inhibition (IC50: nmol/L)
Method: (§6) The IC50 values for each compound in cell lines used in a series of animal experiments evaluating the antitumor effects of Compound (1) on KRAS mutant tumor xenografts were determined by a 3-day growth inhibition assay (Table 7).

[19] = test system: LU65; test: 3-day growth inhibition assay; format: cell-based; conditions: Homo sapiens, Lu-65; LU65 (NSCLC), KRAS p.G12C; read-out: Growth inhibition (IC50: nmol/L)
Method: as §6

[20] = test system: SW1573; test: 3-day growth inhibition assay; format: cell-based; conditions: Homo sapiens; SW1573 (NSCLC), KRAS p.G12C, PIK3CA p.K111E; read-out: Growth inhibition (IC50: nmol/L)
Method: as §6

[21] = test system: AsPC-1; test: 3-day growth inhibition assay; format: cell-based; conditions: Homo sapiens, ASPC1; AsPC-1 (Pancreas), KRAS p.G12D; read-out: Growth inhibition (IC50: nmol/L)
Method: as §6

[22] = with estrogen, read-out: IC50 (nmol/L) E2 (+)
[23] = without estrogen, read-out: IC50 (nmol/L) E2 (−)

SMILES: CC(C)(C)NCCNc1ccc(-c2nnc(C(F)(F)F)o2)nc1C1CCN(c2ncnc3c2C(C)(C)C(=O)N3)CC1 [Compound (1), 4-(4-(3-((2-(tert-butylamino)ethyl)amino)-6-(5-(trifluoromethyl)-1,3,4-oxadiazol-2-yl)pyridin-2-yl)piperidin-1-yl)-5,5-dimethyl-5H-pyrolo[2,3-d]pyrimidin-6(7H)-one]
- T/C ratio (%) ([1]; 30 mg/kg/day): 55%
- Number of deaths ([1]; 30 mg/kg/day): 0
- Tumor volume (mm^3) Day 15 Mean ± SE ([1]; 30 mg/kg/day): 438.6 ± 81.1 mm^3
- T/C ratio (%) ([1]; 60 mg/kg/day): 38%
- Number of deaths ([1]; 60 mg/kg/day): 0
- Tumor volume (mm^3) Day 15 Mean ± SE ([1]; 60 mg/kg/day): 305.6 ± 33.0 mm^3
- IC50 [2]: 2.81 µM
- IC50 [3]: 0.07 µM
- IC50 [4]: 0.844 µM
- IC50 [5]: 0.118 µM
- IC50 [6]: 0.128 µM
- IC50 [7]: 0.355 µM
- IC50 [8]: 0.157 µM
- IC50 [9]: 0.344 µM
- signals of pPRAS40, pYB1, and pS6RP (target inhibition) ([10]; MCF7, control and NF1 knockdown, 24 hours, immunoblot): decreased the signals of pPRAS40, pYB1, and pS6RP in a concentration-dependent manner
- apoptosis induction (cleaved PARP signal) ([10]; MCF7 NF1 knockdown cells versus control cells): did not exhibit the attenuation of apoptosis induction
- apoptosis induction (cleaved PARP signal) ([10]; MCF7 control cells (non-targeting siRNA), single agent): induced apoptosis
- Number of deaths ([11]; 80 mg/kg/day): 0
- T/C ratio (%) ([11]; 80 mg/kg/day, Day 13): 75%
- Tumor volume (mm^3) Day 13 Mean ± SE ([11]; 80 mg/kg/day, qd, po): 1724.3 ± 91.1 mm^3
- tolerability (body weight changes) ([11]; throughout the study period): well tolerated
- Number of deaths ([12]; 40 mg/kg/day): 0
- T/C ratio (%) ([12]; 40 mg/kg/day): 91%
- Tumor volume (mm^3) Day 22 Mean ± SE ([12]; 40 mg/kg/day): 860.1 ± 112.1 mm^3
- Number of deaths ([12]; 80 mg/kg/day): 0
- T/C ratio (%) ([12]; 80 mg/kg/day): 69%
- Tumor volume (mm^3) Day 22 Mean ± SE ([12]; 80 mg/kg/day): 648.0 ± 51.7 mm^3
- weight reduction or tolerability ([12]; mouse, in vivo): no significant changes in weight reduction or tolerability
- IC50 [13, 22]: 108 nmol/L
- IC50 [13, 23]: 89 nmol/L
- IC50 [14, 22]: 37 nmol/L
- IC50 [14, 23]: 111 nmol/L
- IC50 [15, 22]: 65 nmol/L
- IC50 [15, 23]: 125 nmol/L
- IC50 [16, 22]: 188 nmol/L
- IC50 [16, 23]: 294 nmol/L
- levels of cleaved caspase-3 and cleaved PARP [17]: increased cleaved caspase-3 and cleaved PARP in a concentration dependent manner
- IC50 [18]: 316 nmol/L
- IC50 [19]: 92.9 nmol/L
- IC50 [20]: 139 nmol/L
- IC50 [21]: 184 nmol/L
